# Source: patent publication US20150125893A1, “TRANSPORTER BIOSENSORS” (Carnegie Institute of Washington, priority 2013, published 2015)
# Key:
# [1] = system: OzTrac-MSL10; assay: OzTrac-MSL10 FRET osmosensor expressed in yeast cells, response to osmolytes; format: cell-based, Arabidopsis thaliana; details: for FRET emission ratio: addition of 1M osmolyte; for FRET emission ratio / FRET response to osmolyte: yeast cells; for FRET response to osmolyte: hyper-osmotic stress, NaCl at 1M
# Description: Fusion proteins comprising the mechanisensitive channel small conductance-like 10 (AtMSL10) were constructed, potentially creating an osmosensor. […] This t9AFP-AtMSL10-t7TFPt9 protein is named as OzTrac-MSL10. […] Upon treatment of 1 M NaCl, which induces hyper-osmotic stress, AtMSL10 will undergo a conformational change into the closed state which causes the FRET pairs to come closer, resulting in a higher FRET.
# The OzTrac-MSL10 FRET sensor can detect a range of osmolarity concentration changes. […] The calculation of the dissociation constant is around 0.5 M for NaCl and KCl, and around 1M for […] and […].
# [2] = system: NRT1.1 T101A mutant fusion protein; assay: Nitrate sensor fluorescence response in yeast, NRT1.1 T101A low affinity mutant fusion protein; format: cell-based, Arabidopsis thaliana
# Description: Yeast strains used in this study were BJ5465 [MATa, ura3-52, trp1, leu2Δ1, his3Δ200, pep4::HIS3, prb1Δ1.6R, cant GAL+] obtained from Yeast Genetic Stock Center (University of California, Berkeley, Calif.). Yeast was transformed using the lithium acetate method and selected on solid YNB (minimal yeast medium without nitrogen; Difco) supplemented with 2% glucose and -Ura DropOut (Clontech). Single colonies were grown in 5 mL liquid YNB supplemented with 2% glucose and -Ura DropOut under agitation (220 rpm) at 30° C. until OD600 nm˜0.8 was reached. The liquid cultures were subcultured by diluted to OD600 nm 0.01 in the same liquid medium and conditions at 30° C. until OD600 nm 0.2 was reached. […] Fluorescence was measured by a fluorescence plate reader (M1000, TECAN), in bottom reading mode using a 7.5 nm bandwidth for both excitation and emission. To measure fluorescence response to substrate addition, 100 μL of substrate (dissolved in MES buffer as 500% stock solution) were added to 100 μL of cells in a 96-well plate (Greiner). Fluorescence from cultures harboring yeast expression vectors pDRFlip30, 39, and 42 was measured as emission at λem=470-570 nm using excitation at λexc=428 nm and fluorescence using yeast expression vector pDRFlip34 and 35 was measured as emission at λem=470-570 nm using excitation at λexc=440 nm.
# [3] = system: CHL1 nitrate transporter (AFPt9 in central loop, Teal-t9 in loop between helices 10 and 11)
# Description: (§1) All transporter and sensor constructs were inserted in the yeast expression vector pDRFlip30, 34, 35, 39, 42-GW. The details of the vectors are as follows: pDRFlip30 using pair of N-terminal fluorescent protein Aphordite t9 (AFPt9), 9 amino acids truncated of C-term of AFP, and C-terminal fluorescent protein monomeric Cerulean (mCer); pDRFlip 39 using pair of N-terminally fused fluorescent protein enhanced dimer Aphrodite t9 (edAFPt9) and C-terminal fluorescent protein enhanced dimer, 7 amino acids and 9 amino acids truncated of N-term and C-term of eCyan (t7.ed.eCFPt9), respectively; pDRFlip 42 using pair of N-terminal fluorescent protein Citrine and C-terminal fluorescent protein mCer; pDRFlip 34 using pair of N-terminal fluorescent protein AFPt9 and C-terminal fluorescent protein t7.Teal.t9 (t7.TFP.t9), and pDRFlip 35 using pair of N-terminal fluorescent protein AFPt9 and C-terminal fluorescent protein mTFPt9. All vectors contained […] replication origin, GATEWAY™ cassette-attR1-CmR-ccdB gene-attR2 sequence, which is between the pair of fluorescent proteins, a PMA1 promoter fragment, an ADH terminator, different pairs of fluorescent proteins, and the URA cassette for selection in yeast. The full length ORF of NRT1.1 and different mutants of NRT1.1, such as T101A, T101D, P492L from Arabidopsis (At1g12110) in TOPO GATEWAY™ entry vector were used to prepare the nitrate sensors of the present invention. The yeast vector harboring the constructs was then created by the GATEWAY™ LR reaction between different forms of pTOPO-NRT and different pDRFlip-GWs, following manufacturer's instructions..
# (§2) Yeast strains used in this study were BJ5465 [MATa, ura3-52, trp1, leu2Δ1, his3Δ200, pep4::HIS3, prb1Δ1.6R, cant GAL+] obtained from Yeast Genetic Stock Center (University of California, Berkeley, Calif.). Yeast was transformed using the lithium acetate method and selected on solid YNB (minimal yeast medium without nitrogen; Difco) supplemented with 2% glucose and -Ura DropOut (Clontech).
# [4] = system: CHL1 nitrate transporter (Aphrodite-t9 N-terminus, Teal-t9 C-terminus)
# Description: as §1, §2
# [5] = system: pDRFlip302 (NRT1.1 with AFPt9 and mCerulean)
# Description: as §1, §2
SMILES,FRET emission ratio [1],FRET response to osmolyte [1],other results
OCC(O)CO [glycerol],higher FRET emission ratio,increased the FRET,
OC[C@@H](O)[C@@H](O)[C@H](O)[C@@H](O)CO [sorbitol],higher FRET emission ratio,increased the FRET,
O=[N+]([O-])[O-].[K+] [KNO3],,,sensor response ([2]; high levels of KNO3): only responds to addition of high levels; sensor response ([2]; low levels of KNO3): does not respond
"[Cl-].[K+] [KCl, potassium chloride]",higher FRET emission ratio,increased the FRET,
O=[N+]([O-])O [nitrate],,,change in FRET on addition of nitrate [3]: does not induce a change in FRET; change in FRET on addition of nitrate [4]: does not induce a change in FRET; change in FRET on addition of nitrate [5]: does not induce a change in FRET
"[Cl-].[Na+] [NaCl, sodium chloride]",higher FRET emission ratio,dramatic FRET change,"emission spectrum change ([1]; 1M NaCl, excitation at 440 nm): decrease in fluorescence intensity of donor and increase of acceptor; FRET change with serial concentrations ([1]; serial NaCl concentrations (mM), excitation at 440 nm): concentration-dependent FRET changes"
